Where two headings read alike, the source gives them in different places.

From patent US20020055094A1 (priority 1996, published 2002) come the findings set out here.

Assay [1] addresses whole virus influenza neuraminidase, influenza A strain NWS/Tokyo (Influenza A virus, UniProt P06820). In words: biochemical.
The subject of assay [2] is influenza A NWS/Tokyo (H1N2). It counts as binding.
The target of assay [3] is whole virus influenza neuraminidase, influenza B strain B/Vic/02/87 (Influenza B virus, UniProt P27907). Type of assay: biochemical. To be noted: read-out: Binding Constants (M) / inhibition constants (IC50), B/Vic/02/87.
Chain of whole virus influenza neuraminidase, influenza B strain B/Vic/02/87 (P27907 whole entry, looked up): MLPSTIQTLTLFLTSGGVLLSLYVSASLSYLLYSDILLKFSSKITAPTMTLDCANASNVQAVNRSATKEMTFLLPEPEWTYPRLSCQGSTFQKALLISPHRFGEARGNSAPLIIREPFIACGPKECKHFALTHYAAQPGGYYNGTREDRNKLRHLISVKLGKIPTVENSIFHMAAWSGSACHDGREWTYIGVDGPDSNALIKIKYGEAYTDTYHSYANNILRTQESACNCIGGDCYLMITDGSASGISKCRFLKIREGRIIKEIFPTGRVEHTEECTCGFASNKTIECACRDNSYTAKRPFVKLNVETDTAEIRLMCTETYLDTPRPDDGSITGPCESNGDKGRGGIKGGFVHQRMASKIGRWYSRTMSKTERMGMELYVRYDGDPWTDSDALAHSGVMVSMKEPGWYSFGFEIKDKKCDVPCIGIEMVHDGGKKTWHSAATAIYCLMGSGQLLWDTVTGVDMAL

Chain of whole virus influenza neuraminidase, influenza A strain NWS/Tokyo (P06820 whole entry, looked up): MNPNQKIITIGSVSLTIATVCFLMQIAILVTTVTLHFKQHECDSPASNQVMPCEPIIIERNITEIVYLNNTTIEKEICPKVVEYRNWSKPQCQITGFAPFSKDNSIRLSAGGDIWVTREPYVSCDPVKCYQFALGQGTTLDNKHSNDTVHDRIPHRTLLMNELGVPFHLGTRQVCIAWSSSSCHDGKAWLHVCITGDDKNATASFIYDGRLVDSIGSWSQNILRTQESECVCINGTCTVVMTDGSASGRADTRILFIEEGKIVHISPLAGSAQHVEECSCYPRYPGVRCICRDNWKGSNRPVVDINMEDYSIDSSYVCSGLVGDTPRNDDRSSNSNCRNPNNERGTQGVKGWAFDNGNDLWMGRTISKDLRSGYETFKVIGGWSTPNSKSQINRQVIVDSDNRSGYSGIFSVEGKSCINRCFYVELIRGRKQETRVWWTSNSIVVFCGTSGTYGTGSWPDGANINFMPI

Consider `CC(=O)N[C@H]1[C@H]([C@H](OC(=O)NCCCCCCN)[C@H](O)CO)OC(C(=O)O)=C[C@@H]1NC(=N)N` [compound 11, 5-acetamido-7-(6′-aminohexyl)-carbamoyloxy-4-guanidino-2,3,4,5-tetradeoxy-D-glycero-D-galacto-non-2-enopyranosonic acid], for which the IC50 in assay [1] is 2e-08 M. Take “5-acetamido-7-{6′-[6″-(6″′-biotinylaminocaproyl) -tri-amingcaroyl]-aminohexyl}-carbamoyloxy-4-guanidino -2,3,4,5-tetradeoxy-D-glycero-D-gaacto-non-2-enopyranosonic acid [Compound No. 26]”: in assay [2], the “compound concentration giving the best results” value came out at 0.1 µM and the “virus amount readily detected” value is reported as 2.5×10^5 pfu/well. The IC50 in assay [3] stood at 4e-08 M.

In assay [1], `CC(=O)N[C@H]1[C@H]([C@H](OC(=O)NCCCCCCNC(=O)CNC(=O)CNC(=O)CNC(=O)CCCC[C@@H]2SC[C@@H]3NC(=O)N[C@@H]32)[C@H](O)CO)OC(C(=O)O)=C[C@@H]1NC(=N)N` [Compound No. 21, 5-acetamido-7-(6′-biotinylamino-tricrlycinamido-hexy) -carbamoyloxy-4-guanidino-2,3,4,5-tetradeoxy-D-glycerQ-D-galacto-non-2-enopyranosonic acid] gave an IC50 of 4e-08 M. In assay [1], `CC(=O)N[C@H]1[C@H]([C@H](OC(=O)NCCCCCCNC(=O)OC(C)(C)C)[C@H](O)CO)OC(C(=O)O)=C[C@@H]1NC(=N)N` [compound 13, 5-acetamido-7-(6′-tert-butoxycarbonylaminohexyl)-carbamoyloxy-4-guanidino-2,3,4,5-tetradeoxy-D-glycero-D-galacto-non-2-enopyranosonic acid] displayed an IC50 of 2e-08 M.

In assay [1], `CC(=O)N[C@H]1[C@H]([C@H](OC(=O)NCCCCCCNC(=O)CCCCCNC(=O)CCCC[C@@H]2SC[C@@H]3NC(=O)N[C@@H]32)[C@H](O)CO)OC(C(=O)O)=C[C@@H]1NC(=N)N` [compound 23, 5-Acetamido-7-(6′-biotinylamino-caproyl-aminohexyl) -carbamoyl-4-guanidino-2,3,4,5-tetradeoxy-D-glycero-D-galacto-non-enopyranosonic acid] showed an IC50 of 2e-08 M. On the same count and under the same terms, next, `CC(=O)N[C@H]1[C@H]([C@H](OC(=O)NCCCCCCNC(=O)NCCCCCCNC(=O)OC(C)(C)C)[C@H](O)CO)OC(C(=O)O)=C[C@@H]1N` [compound 20, 5-acetamido-4-amino-7-[6′-(6″-tert-butoxycarbonyl-aminohexylureido) -hexyl]-carbamoyloxy-2,3,4,5-tetradeoxy-D-glycero-D-galacto-non-2-enopyanosonic acid]: 1e-05 M; `CC(=O)N[C@H]1[C@H]([C@H](OC(=O)NCCCCCCNC(=O)NCCCCCCN)[C@H](O)CO)OC(C(=O)O)=C[C@@H]1NC(=N)N` [Compound No. 8, 5-acetamido-7-[6′-(6″-aminohexylureido)-hexyl]-carbamoyloxy-4-guanidino-2,3,4,5-tetradeoxy-D-glycero-D-galacto-non-2-enopyranosonic acid]: 4e-08 M.

In the case of `CC(=O)N[C@H]1[C@H]([C@H](OC(=O)NCCCCCCNC(=O)CCCCCCCCCCCNC(=O)CCCC[C@@H]2SC[C@@H]3NC(=O)N[C@@H]32)[C@H](O)CO)OC(C(=O)O)=C[C@@H]1NC(=N)N` [compound 22, 5-Acetamido-7-(6′-biotinylamino-dodecanoyl-aminohexyl) -carbamoyl-4-guanidino-2,3,4,5-tetradeoxy-D-glycero-D-galacto-non-2-enopyranosonic acid], the IC50 in assay [1] is 3e-08 M.

Compound `CC(=O)N[C@H]1[C@H]([C@H](OC(=O)NCCCCCCNC(=O)CCCC[C@@H]2SC[C@@H]3NC(=O)N[C@@H]32)[C@H](O)CO)OC(C(=O)O)=C[C@@H]1NC(=N)N` [compound 19, 5-acetamindo-7-(6′-biotinylaminohexyl),carbamoyloxy-4-guanidino-2,3,4,5-tetradeoxy-D-crlvero-D-galacto-non-2-enopyranosonic acid] came in with an IC50 in assay [1] of 1e-08 M.

In assay [1], `CC(=O)N[C@H]1[C@H]([C@H](OC(=O)NCCCCCCNC(=O)CCCCCNC(=O)CCCCCNC(=O)CCCCCNC(=O)CCCCCN)[C@H](O)CO)OC(C(=O)O)=C[C@@H]1NC(=N)N` [compound 25, 5-acetamido-7-(6′-(6″-(6″′-aminocaproyl) -triaminocaproyl) -aminohexyl) -carbamoyloxy-4-guanidino-2,3,4,5-tetradeoxy-D-glycero-D-galacto-non-2-enopyranosonic acid] returned an IC50 of 5e-08 M. Consider `CC(=O)N[C@H]1[C@H]([C@H](OC(=O)NCCOCCOCCN)[C@H](O)CO)OC(C(=O)O)=C[C@@H]1NC(=N)N` [compound 17, 5-acetamido-7-{2-[2-(2-aminoethoxy)-ethoxy]-ethyl}-carbamoyloxy-4-guanidino-2,3,4,5-tetradeoxy-D-glycero-D-galacto-non-2-enopyranosonic acid], for which the IC50 in assay [1] is 2e-08 M. With DANA [reference compound], the IC50 in assay [1] (read-out: Binding Constants (M) / inhibition constants (IC50), NWS/Tokyo) stood at 4e-05 M.
